Our source for the inhibition values is ChEMBL document CHEMBL4602620, “N,O-Dialkyl deoxynojirimycin derivatives as CERT START domain ligands” (Bioorg Med Chem Lett, 2020).

In experiment [1] the target is T1, Ceramide transfer protein (Homo sapiens) (UniProt Q9Y5P4).
T1 sequence (whole entry): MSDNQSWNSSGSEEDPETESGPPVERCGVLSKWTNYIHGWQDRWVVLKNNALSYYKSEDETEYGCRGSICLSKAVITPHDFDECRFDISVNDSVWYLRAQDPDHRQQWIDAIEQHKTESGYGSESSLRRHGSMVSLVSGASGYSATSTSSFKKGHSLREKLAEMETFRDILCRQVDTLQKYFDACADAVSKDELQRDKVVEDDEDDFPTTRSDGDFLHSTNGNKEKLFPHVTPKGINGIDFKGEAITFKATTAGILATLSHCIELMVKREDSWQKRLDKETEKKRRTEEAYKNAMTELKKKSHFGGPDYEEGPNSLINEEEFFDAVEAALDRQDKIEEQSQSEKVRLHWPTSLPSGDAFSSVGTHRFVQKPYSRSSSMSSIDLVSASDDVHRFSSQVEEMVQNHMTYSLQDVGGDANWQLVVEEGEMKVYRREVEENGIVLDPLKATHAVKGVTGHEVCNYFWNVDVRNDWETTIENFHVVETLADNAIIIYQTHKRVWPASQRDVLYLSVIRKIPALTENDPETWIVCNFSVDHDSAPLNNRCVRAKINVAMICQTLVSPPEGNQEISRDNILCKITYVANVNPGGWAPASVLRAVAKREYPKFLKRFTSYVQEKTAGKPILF
The experiment is described as follows: Displacement of fluorescent tagged ceramide from immobilized His-tagged CERT START domain (unknown origin) assessed as reduction in residual fluorescence activity by FLINT assay relative to control. The following applies: concentration not given here. Details: concentration or dose not given beside the values.

Another experiment deals with Saccharomyces cerevisiae. The experiment is described as follows: Inhibition of Saccharomyces cerevisiae alpha-glucosidase at 0.2 mM relative to control.
A further experiment deals with Aspergillus niger. Briefly: Inhibition of Aspergillus niger amyloglucosidase at 0.2 mM relative to control.
The subject of a further experiment is Prunus dulcis. Briefly: Inhibition of almond beta-glucosidase at 0.2 mM relative to control.

Molecules are shown by their SMILES.

The term inhibition denotes the share of the control response that was lost under treatment. In the case of `CCCCCCCCCCCCO[C@H]1CN(CCCCCCCCCCCC)C[C@@H](O)[C@@H]1O`, the inhibition in experiment [1] came to 25%.

As to `CCCCCCCCCCCC(=O)N[C@@H](CO)C[C@H](O)c1ccccc1`, in experiment [1], the inhibition amounted to 25%.

In the case of `CCCCCCCCCCCCO[C@H]1CN(CCCCCCCCCCCC)[C@H](CO)[C@@H](O)[C@@H]1O`, the inhibition came to 40% in experiment [1], 5.1% with Saccharomyces cerevisiae, 6% in the experiment with Aspergillus niger and 0.65% in the experiment with Prunus dulcis.

On to `CCCCCCCCCCCCO[C@H]1[C@H](O)[C@@H](O)CN(CCCCCCCCCCCC)[C@@H]1CO`, for which the inhibition in experiment [1] is 20%; in the experiment on Saccharomyces cerevisiae it was 7.3%; in the experiment with Aspergillus niger, 11%; with Prunus dulcis, 1.7%.

Consider `CCCCCCCCCCCCN1C[C@H](O)[C@@H](O)[C@H](O)[C@H]1CO`, for which the inhibition in experiment [1] stood at 25%; in the experiment on Saccharomyces cerevisiae, 13%; with Aspergillus niger, 88%; in the experiment on Prunus dulcis it was 39%.

For `CCCCCCCCCCCCC/C=C/[C@@H](O)[C@H](CO)NC(=O)CCCCCCCCCCCCCCC`, in experiment [1], the inhibition was found to be 25%.
